# Data as given in ChEMBL document CHEMBL1201862, “PubChem BioAssay data set” (2004).
# Active and inactive are the calls of the source.
# Assays:
# [1] = biological target: T1, Short transient receptor potential channel 4 (Mus musculus, UniProt Q9QUQ5); test: calcium entry via TRPC4 opening agents – cell-based, HEK293 TRPC4/mu-opioid, Fluo-4 calcium, dose response (AID 434937); assay type: functional
# T1 sequence (Q9QUQ5 whole entry): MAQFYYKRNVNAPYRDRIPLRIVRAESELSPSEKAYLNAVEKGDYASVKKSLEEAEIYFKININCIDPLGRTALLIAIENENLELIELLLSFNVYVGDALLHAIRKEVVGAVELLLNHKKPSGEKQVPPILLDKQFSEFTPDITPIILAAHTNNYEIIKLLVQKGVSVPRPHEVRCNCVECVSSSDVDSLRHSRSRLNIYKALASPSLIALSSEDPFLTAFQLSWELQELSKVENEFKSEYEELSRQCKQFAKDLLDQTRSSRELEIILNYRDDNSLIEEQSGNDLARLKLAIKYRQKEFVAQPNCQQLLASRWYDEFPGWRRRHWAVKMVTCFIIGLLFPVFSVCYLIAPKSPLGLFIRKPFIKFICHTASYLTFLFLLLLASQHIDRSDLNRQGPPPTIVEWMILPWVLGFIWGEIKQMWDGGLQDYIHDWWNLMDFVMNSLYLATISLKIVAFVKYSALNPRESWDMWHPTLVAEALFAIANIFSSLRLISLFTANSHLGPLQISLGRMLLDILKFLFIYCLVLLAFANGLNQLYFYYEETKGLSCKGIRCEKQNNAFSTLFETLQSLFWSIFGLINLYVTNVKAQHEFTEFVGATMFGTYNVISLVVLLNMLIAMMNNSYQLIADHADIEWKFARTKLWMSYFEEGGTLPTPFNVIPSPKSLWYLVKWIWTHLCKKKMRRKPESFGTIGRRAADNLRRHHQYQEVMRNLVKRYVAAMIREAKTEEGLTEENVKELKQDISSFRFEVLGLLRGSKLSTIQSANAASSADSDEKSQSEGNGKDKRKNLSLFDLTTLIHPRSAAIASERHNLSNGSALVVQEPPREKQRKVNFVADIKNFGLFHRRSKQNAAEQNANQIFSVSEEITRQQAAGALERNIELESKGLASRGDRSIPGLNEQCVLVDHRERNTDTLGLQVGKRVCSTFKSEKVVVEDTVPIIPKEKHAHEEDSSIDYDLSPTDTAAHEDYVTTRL
# Cytochrome P450 2C9 = Cytochrome P450 2C9 (Homo sapiens, UniProt P11712)
# Chain of Cytochrome P450 2C9 (P11712 whole entry): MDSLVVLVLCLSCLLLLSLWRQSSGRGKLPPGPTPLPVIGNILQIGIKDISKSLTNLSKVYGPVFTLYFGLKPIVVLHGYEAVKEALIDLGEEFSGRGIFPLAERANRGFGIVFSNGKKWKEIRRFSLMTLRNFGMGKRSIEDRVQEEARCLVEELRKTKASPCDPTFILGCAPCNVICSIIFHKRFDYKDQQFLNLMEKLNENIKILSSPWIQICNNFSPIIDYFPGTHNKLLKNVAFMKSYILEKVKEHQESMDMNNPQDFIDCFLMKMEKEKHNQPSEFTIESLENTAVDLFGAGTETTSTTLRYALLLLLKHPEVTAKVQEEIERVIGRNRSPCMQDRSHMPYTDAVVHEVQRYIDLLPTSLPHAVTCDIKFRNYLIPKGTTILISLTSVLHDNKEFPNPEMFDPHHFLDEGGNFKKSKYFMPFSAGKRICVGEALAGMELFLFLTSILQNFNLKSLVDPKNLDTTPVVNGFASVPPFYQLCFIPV
# [2] = biological target: Luciferin 4-monooxygenase (Photinus pyralis, UniProt P08659); test: inhibition of purified Photinus pyralis luciferase – biochemical, luminescence, dose response (AID 1891)
# Chain of Luciferin 4-monooxygenase (P08659 whole entry): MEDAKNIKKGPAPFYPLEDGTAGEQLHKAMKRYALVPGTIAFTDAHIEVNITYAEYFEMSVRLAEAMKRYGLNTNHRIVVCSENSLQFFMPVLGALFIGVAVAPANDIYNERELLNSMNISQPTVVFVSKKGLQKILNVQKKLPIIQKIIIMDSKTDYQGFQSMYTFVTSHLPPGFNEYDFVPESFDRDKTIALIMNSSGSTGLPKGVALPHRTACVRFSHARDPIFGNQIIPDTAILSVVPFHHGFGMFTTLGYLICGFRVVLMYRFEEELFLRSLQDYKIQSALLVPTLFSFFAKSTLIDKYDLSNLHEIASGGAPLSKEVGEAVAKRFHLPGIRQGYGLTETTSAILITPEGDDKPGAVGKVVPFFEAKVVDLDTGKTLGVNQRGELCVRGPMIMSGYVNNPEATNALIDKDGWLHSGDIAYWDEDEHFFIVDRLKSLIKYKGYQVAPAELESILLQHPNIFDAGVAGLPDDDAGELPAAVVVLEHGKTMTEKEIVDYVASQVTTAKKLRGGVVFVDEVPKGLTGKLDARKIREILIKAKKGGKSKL
# [3] = Luminescence Cell-Based Dose Confirmation HTS to Identify Inhibitors of Platelet Dense Granule Release. [Related pubchem assays: 1663 (Primary HTS), 1678 (Summary of Project)]; assay type: functional
# Cytochrome P450 3A4 = Cytochrome P450 3A4 (Homo sapiens, UniProt P08684);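 note: CYP3A4 tested as one member of a cytochrome P450 panel screen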
# Chain of Cytochrome P450 3A4 (P08684 whole entry): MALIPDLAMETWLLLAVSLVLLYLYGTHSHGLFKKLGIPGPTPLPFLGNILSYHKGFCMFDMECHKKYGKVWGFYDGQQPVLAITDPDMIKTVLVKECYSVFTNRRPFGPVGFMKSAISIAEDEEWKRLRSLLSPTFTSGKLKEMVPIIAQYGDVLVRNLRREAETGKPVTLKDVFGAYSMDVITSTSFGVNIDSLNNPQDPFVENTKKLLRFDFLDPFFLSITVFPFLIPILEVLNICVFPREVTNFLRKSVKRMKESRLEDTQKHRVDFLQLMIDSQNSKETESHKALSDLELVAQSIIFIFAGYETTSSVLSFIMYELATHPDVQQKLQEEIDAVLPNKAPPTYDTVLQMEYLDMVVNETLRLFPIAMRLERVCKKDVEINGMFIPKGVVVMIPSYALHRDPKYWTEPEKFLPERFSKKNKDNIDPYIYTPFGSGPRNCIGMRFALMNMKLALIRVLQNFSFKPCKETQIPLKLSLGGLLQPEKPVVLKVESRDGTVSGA
# Cytochrome P450 2C19 = Cytochrome P450 2C19 (Homo sapiens, UniProt P33261); test: Cytochrome panel assay with activity outcomes. Panel member name: p450-cyp2c19 Compounds with AC50 equal or less than 10 uM are considered active; assay type: functional; conditions: read-out: AC50
# Chain of Cytochrome P450 2C19 (P33261 whole entry): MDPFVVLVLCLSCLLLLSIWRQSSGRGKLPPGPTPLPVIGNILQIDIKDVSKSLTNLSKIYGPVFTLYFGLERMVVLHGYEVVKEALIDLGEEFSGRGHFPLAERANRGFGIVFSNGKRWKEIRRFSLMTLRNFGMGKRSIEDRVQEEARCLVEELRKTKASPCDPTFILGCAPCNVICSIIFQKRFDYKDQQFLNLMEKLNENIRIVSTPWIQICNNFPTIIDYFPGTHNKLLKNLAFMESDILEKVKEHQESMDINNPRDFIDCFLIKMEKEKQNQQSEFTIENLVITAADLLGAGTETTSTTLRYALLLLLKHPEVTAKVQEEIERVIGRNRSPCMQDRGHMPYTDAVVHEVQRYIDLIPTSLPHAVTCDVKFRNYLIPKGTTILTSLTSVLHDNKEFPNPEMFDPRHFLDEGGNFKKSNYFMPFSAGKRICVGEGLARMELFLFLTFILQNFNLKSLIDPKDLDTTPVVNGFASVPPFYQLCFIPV
# [4] = biological target: T2, DNA repair and recombination protein RAD54-like (Homo sapiens, UniProt Q92698); test: RAD54 Holliday junction migration blockers – biochemical, fluorescence, cherry-picked samples, dose series, confirmation (AID 651657); assay type: functional
# T2 sequence (Q92698 whole entry): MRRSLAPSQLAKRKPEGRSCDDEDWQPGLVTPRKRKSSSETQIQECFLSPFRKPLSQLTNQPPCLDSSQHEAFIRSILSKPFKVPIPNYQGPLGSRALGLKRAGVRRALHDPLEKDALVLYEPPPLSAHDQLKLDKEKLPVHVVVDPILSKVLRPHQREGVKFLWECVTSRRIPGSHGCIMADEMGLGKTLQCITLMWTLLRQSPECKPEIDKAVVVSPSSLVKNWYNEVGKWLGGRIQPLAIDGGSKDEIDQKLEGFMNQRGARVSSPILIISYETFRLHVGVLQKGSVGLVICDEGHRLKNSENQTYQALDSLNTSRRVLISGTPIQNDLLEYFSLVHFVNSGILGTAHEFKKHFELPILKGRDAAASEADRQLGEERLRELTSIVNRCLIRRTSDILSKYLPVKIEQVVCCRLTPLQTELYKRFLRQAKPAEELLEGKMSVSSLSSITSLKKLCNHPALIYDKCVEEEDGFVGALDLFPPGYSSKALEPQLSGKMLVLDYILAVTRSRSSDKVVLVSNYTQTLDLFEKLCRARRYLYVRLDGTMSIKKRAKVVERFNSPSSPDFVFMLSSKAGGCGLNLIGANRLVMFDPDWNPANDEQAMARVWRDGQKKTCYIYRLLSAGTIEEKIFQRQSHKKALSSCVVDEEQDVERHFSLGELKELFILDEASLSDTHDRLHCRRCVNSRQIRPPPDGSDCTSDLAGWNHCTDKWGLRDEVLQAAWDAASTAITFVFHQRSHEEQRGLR
# [5] = Fluorescence-based cell-based high throughput dose response assay for inhibitors of the interaction of nucleotide-binding oligomerization domain containing 2 (NOD2) and the receptor-interacting serine-threonine kinase 2 (RIPK2).; assay type: functional; conditions: Homo sapiens
# [6] = HEK-293T viability loss after treatment – luminescence, T-cell screen hits, cytotoxicity control for TCR NF-kB inhibitor project, dose response (AID 489026); assay type: functional, cell-based;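 note: cells exposed to compound about 14 hours before the viability readout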
# [7] = DRD fibroblast viability loss – cell-based, non-viral oncogenic, luminescence, dose response (AID 1934); assay type: functional; conditions: Homo sapiens
# BJ [8] = test: cells; assay type: functional, cell-based; conditions: Homo sapiens
# BJ [9] = test: BJ-TERT-LT-ST fibroblast viability loss – cell-based, RAS-independent, luminescence, dose response (AID 1935); assay type: functional; conditions: Homo sapiens;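 note: BJ fibroblasts immortalized with TERT plus LT and ST oncogenes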
# BJ [10] = test: BJ-TERT fibroblast viability loss – cell-based, RAS-independent, luminescence, dose response (AID 1933); assay type: functional; conditions: Homo sapiens
# [11] = biological target: T3, Nuclear receptor subfamily 0 group B member 1 (Homo sapiens, UniProt P51843); assay type: functional, cell-based;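 note: HEK293T cells transfected with SF-1 and DAX-1 plus StAR promoter luciferase reporter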
# T3 sequence (P51843 whole entry): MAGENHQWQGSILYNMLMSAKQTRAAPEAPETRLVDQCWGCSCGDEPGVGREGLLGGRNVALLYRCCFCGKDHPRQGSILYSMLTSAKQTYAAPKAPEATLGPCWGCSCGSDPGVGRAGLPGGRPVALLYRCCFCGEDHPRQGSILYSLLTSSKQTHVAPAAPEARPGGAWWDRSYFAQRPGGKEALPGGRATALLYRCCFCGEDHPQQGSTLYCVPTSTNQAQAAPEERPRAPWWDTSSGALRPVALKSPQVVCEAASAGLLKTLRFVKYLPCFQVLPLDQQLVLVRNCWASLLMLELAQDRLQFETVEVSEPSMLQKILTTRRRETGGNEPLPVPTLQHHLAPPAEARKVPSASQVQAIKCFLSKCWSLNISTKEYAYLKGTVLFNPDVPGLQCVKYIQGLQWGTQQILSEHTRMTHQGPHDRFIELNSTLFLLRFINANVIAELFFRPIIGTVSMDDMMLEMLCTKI
# cells = assay type: functional, cell-based
# [12] = off-target signal loss in HeLa-CEM21 co-culture – HeLa F-luc CTL cells, cherry-picked, counter-screen for HIV-1 Env fusion inhibitor project, dose response (AID 652040); assay type: functional, cell-based;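 note: potency for signal decrease marking cytotoxic or nonspecific inhibition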
compound,measurement,setting,value
CCN1CCCC1CNS(=O)(=O)c1c(C)cc(C)cc1C (centres undefined),EC50,[1],3.35 µM (active)
COc1ccc(S(N)(=O)=O)cc1C(=O)NCCCN1CCN(c2cccc(Cl)c2)CC1.CS(=O)(=O)O,AC50,Cytochrome P450 2C9,100 nM (inconclusive)
same,EC50,[2],> 112 µM (not active)
same,EC50,[3],> 56.1 µM (not active)
same,AC50,Cytochrome P450 3A4,inconclusive
same,AC50,Cytochrome P450 2C19,14.1 µM (inconclusive)
c1ccc2c3nc[nH]c(N4CCN(C5CCCCC5)CC4)c-3nc2c1,AC50,[4],40.5 µM (active)
O=C(NCc1ccccc1)c1ccc2c(c1)C(=O)N(CC1CCCO1)C2=O (centres undefined),AC50,Cytochrome P450 3A4,inconclusive
Cc1noc2ncnc(Sc3c(Cl)cccc3Cl)c12,IC50,[5],4.6 µM (active)
Cn1cccc1C(=O)N1CCC2(CCN(C(=O)Nc3ccccc3)CC2)CC1,AC50,Cytochrome P450 3A4,inconclusive
CC(=O)Nc1ccc(S(=O)(=O)N2c3ccccc3C(C)=CC2(C)C)cc1,IC50,[5],49.7 µM (inactive)
same,IC50,[6],> 80 µM (inactive)
same,EC50,[7],10.4 µM (inconclusive)
same,EC50,BJ [8],13 µM (inconclusive)
same,EC50,BJ [9],9.33 µM (inconclusive)
same,EC50,BJ [10],7.82 µM (inconclusive)
O=C(COc1ccc(Cl)cc1Cl)NC(=O)NC1CCCC1,IC50,[11],> 67.5 µM (inactive)
same,IC50,cells,> 67.5 µM (inactive)
CC1CCCC(C)N1CCCNC(=O)c1nn(C)c2c1CSc1ccccc1-2 (centres undefined),AC50,[12],> 70 µM (inactive)
